Consider two compounds from ChEMBL document CHEMBL1157429, “Design of a fluorescence polarization assay platform for the study of human Hsp70” (Bioorg Med Chem Lett, 2008).

The species entered for test [1] is Homo sapiens. Kind of test: Binding affinity to human Hsp70 assessed as activation of single-turnover ATPase activity at 8 uM.
Test [2] in a line: Binding affinity to human recombinant Hsp70 after 24 hrs by fluorescence polarization assay. Background: In fluorescence polarisation assays a small probe gives low polarisation when free and higher when bound to something large.
For test [3], the target named is Heat shock protein HSP90 (Homo sapiens) (UniProt P07900+P08238). Kind of test: Binding affinity to human recombinant Hsp90 by fluorescence polarization assay. The format is protein assay.
Test [4] is filed under the species Homo sapiens. Kind of test: Decrease in binding affinity to human recombinant Hsp70 at 5 nM by fluorescence polarization assay in presence of ATP.
Test [5] in a line: Binding affinity to Escherichia coli Hsp70 by fluorescence polarization assay.

Each structure is given as a SMILES string. Active and inactive are the calls of the source. The calls are words filed in the database; no cut-off is given here.

For the compound `CC(C)C[C@H](NC(=O)[C@H](C)NC(=O)CCCCCNC(=S)Nc1ccc(-c2c3ccc(=O)cc-3oc3cc(O)ccc23)c(C(=O)O)c1)C(=O)N[C@@H](CC(C)C)C(=O)N[C@@H](CC(C)C)C(=O)N[C@@H](CO)C(=O)N[C@@H](C)C(=O)N1CCC[C@H]1C(=O)N[C@@H](CCCNC(=N)N)C(=O)N[C@@H](CCCNC(=N)N)C(=O)O`, the Activity result in the test listed under Homo sapiens [1] is “Dose-dependent effect”. Further, the Kd (in general, the equilibrium constant for the complex coming apart) in test [2] amounted to 426 nM. Also, the outcome in test [3] was inactive. In the test filed under Homo sapiens [4], the outcome was Active.

In test [5], `CC(C)C[C@H](NC(=O)[C@H](C)N)C(=O)N[C@@H](CC(C)C)C(=O)N[C@@H](CC(C)C)C(=O)N[C@@H](CO)C(=O)N[C@@H](C)C(=O)N1CCC[C@H]1C(=O)N[C@@H](CCCNC(=N)N)C(=O)N[C@@H](CCCNC(=N)N)C(=O)O` displayed a Kd of 400 nM.
